Laboratory results from patent US12673918B2, “Small molecule RPN13 inhibitors with antitumor properties” (The Johns Hopkins University, priority 2019, dated 2026).
Read-outs that look alike come from different tables or passages of the source. Values belong to the compound of their own block, whether it stands above or below them.

What was measured:
[1] = system: PEO4; settings: read-out: cytotoxicity IC50 PEO4; Tables 3A/4B/4C; MTT assay
[2] = system: PEA2; settings: read-out: cytotoxicity IC50 PEA2; Tables 3A/4B/4C; MTT assay
[3] = system: SKOV3
[4] = system: HEC-1A; experiment: MTT cytotoxicity assay, HEC-1A; settings: read-out: cytotoxicity IC50 HEC-1A, Tables 3A/4B/4C
[5] = system: CaSki; experiment: MTT cytotoxicity assay, CaSki; settings: read-out: cytotoxicity IC50 CasKi; Tables 3A/4B/4C; MTT assay
[6] = system: KLE; experiment: MTT cytotoxicity assay, KLE; settings: read-out: cytotoxicity IC50 KLE, Tables 3A/4B/4C
[7] = system: TC1-Lu; experiment: MTT cytotoxicity assay, TC1-Lu; settings: read-out: cytotoxicity IC50 TC1-Lu; Tables 3A/4B/4C; MTT assay
[8] = system: UWB1.289 + BRCA1; experiment: MTT cytotoxicity assay, UWB1.289 + BRCA1; assay type: cell-based; settings: Tables 3A/4B/4C, BRCA1 + Ve
[9] = system: SiHa; experiment: MTT cytotoxicity assay, SiHa; settings: read-out: cytotoxicity IC50 SiHa; Tables 3A/4B/4C; MTT assay
[10] = system: HeLa; experiment: MTT cytotoxicity assay, HeLa; settings: read-out: cytotoxicity IC50 HeLa, Tables 3A/4B/4C
[11] = system: TOV21G; experiment: MTT cytotoxicity assay, TOV21G; settings: read-out: cytotoxicity IC50 TOV21G; Tables 3A/4B/4C; MTT assay
[12] = system: DLD-Seckle
[13] = system: SKOV3-TR
[14] = system: BR5-FvB1
[15] = system: SiHa
[16] = system: HeLa
[17] = system: CaSki
[18] = system: OVCAR3
[19] = system: RPE1-ATMKO
[20] = system: multiple myeloma; settings: cited from earlier work
[21] = system: DLD-BRCA2-Ve
[22] = system: BR5-Luc

SMILES: N.N.[Cl][Pt][Cl] [CP, Cisplatin]
IC50 [1]: 19500 nM
IC50 [2]: 9850 nM

IC50 [3]: 161 nM
SMILES: C[C@@H]1/C(=C\c2ccc([N+](=O)[O-])cc2)C(=O)/C(=C/c2ccc([N+](=O)[O-])cc2)CN1C(=O)[C@@H](N)Cc1ccccc1 [RA413R]
IC50 [4]: 268 nM
IC50 [5]: 220 nM
IC50 [6]: 1430 nM
IC50 [7]: 1800 nM
IC50 [8]: < 20 nM
IC50 [9]: 139 nM
IC50 [10]: 172 nM
IC50 [11]: 20 nM

SMILES: C=CC(=O)N1CC/C(=C\c2ccc(F)c([N+](=O)[O-])c2)C(=O)/C(=C/c2ccc(F)c([N+](=O)[O-])c2)C1 [VLX1570]
IC50 [3]: 128 nM
IC50 [12]: 964 nM
IC50 [13]: 300 nM
IC50 [14]: 250 nM
IC50 [15]: 54 nM
IC50 [16]: 111 nM
IC50 [17]: 68 nM
IC50 [18]: 18 nM
IC50 [19]: 963 nM
dose at which anti-myeloma effects were observed ([20]; phase I patients (70)): ≥ 0.6 mg/kg
adverse events ([20]; two patients at the 1.2 mg/kg dose level (70)): severe, abrupt, and progressive respiratory insufficiency, culminating in death
IC50 [21]: 8540 nM
IC50 [22]: 4.8 nM
